The values below come from publication PMC8624998, “Synthesis and Antiproliferative Evaluation of 3-Chloroazetidin-2-ones with Antimitotic Activity: Heterocyclic Bridged Analogues of Combretastatin A-4” (Pharmaceuticals, 2021).

In series [1] the test system is MCF-7 cells. The experiment in a line: Cell viability assay (MTT/AlamarBlue), antiproliferative activity. It is filed as cell-based, human. An excerpt:
[…]. The introduction of the halogen substituent at C-3 was examined in an effort to investigate the effect on the activity of this substituent, and subsequently optimising the cytotoxic effects against MCF-7 human breast cancer cells.
(§1) The human breast carcinoma cell line MCF-7 was purchased from the European Collection of Animal Cell Cultures (ECACC). Triple negative breast cancer Hs578T cells and its invasive variant Hs578Ts(i)8 were a kind gift from Dr. Susan McDonnell, School of Chemical and Bioprocess Engineering, University College Dublin. U266 cells were a gift from Dr. Tony McElligott, School of Medicine, St James’s Hospital, Trinity College Dublin. HT-29 cells were purchased from the European Collection of Cell Cultures (originating from a human adenocarcinoma of the colon). The human breast carcinoma cell line MDA-MB-231 and the HL-60 cells derived from a patient with acute myeloid leukaemia were both obtained from ECACC (Salisbury, UK). The SW-480 cells were a kind gift from Dr. Brian Flood, School of Biochemistry and Immunology, Trinity College Dublin. HEK-293T (normal epithelial embryonic kidney cells) were cultured in Dulbecco’s Modified Eagle’s Medium (DMEM) with GlutaMAXTM-I in the absence of non-essential amino acids. Human breast cancer MCF-7 cells and multiple myeloma U266 cells were cultured in Minimum Essential Media (MEM) with GlutaMAX™-I, supplemented with 1% (v/v) non-essential amino acids, 10% 2(v/v) foetal bovine serum (FBS) and 1% (v/v) penicillin/streptomycin 5000 U/mL. MDA-MB-231 cells were maintained in DMEM supplemented with 10% (v/v) foetal bovine serum, 2 mM L-glutamine and 100 μg/mL penicillin/streptomycin (complete medium). Colon cancer HT-29 and SW-480 and triple negative breast cancer Hs578T and its invasive variant Hs578T8i were cultured in DMEM with GlutaMAX™-I, with the same supplement in the absence of non-essential amino acids. Leukaemia HL-60 cancer cells were cultured in Roswell Park Memorial Institute Media (RPMI-1640) with GlutaMAX™-I, supplemented with 10% FCS media, and 100 μg/mL penicillin/streptomycin as above. Cell numbers were monitored using a haemocytometer. Cell culture flasks were incubated in a humidified incubator (5% CO2/95% air) at 37 °C. All cell lines were sub-cultured three times per week with trypsinisation using TrypLE Express (1X) required for adherent cell lines.
(§2) . All stock solutions and serial dilution in ethanol/DMSO were stored at -20 °C. All cells were seeded at a density of 2.5 × 10^4 cells/mL in a 96-well plate (200 μL per well). The cells were incubated in a […] atmosphere at 37 °C for 24 h, then treated with test compound (2 μL of stock solutions per 200-microlitre well) in ethanol to obtain a concentration range of 1 nM–200 μM for the study. The plates were then re-incubated for a further 72 h. Control wells contained an equivalent volume of the vehicle ethanol or DMSO (1% v/v). MTT cell viability assay: The culture medium was removed, and the cells were washed with phosphate buffered saline (PBS, […]). MTT (dissolved in PBS, […]) was added to obtain a final concentration of MTT (1 mg/mL). Cells were incubated at 37 °C for 3 h in the dark. Solubilisation was commenced by the addition of DMSO ([…]) and the cells were maintained at 20 °C in the dark for 20 min before reading the absorbance to ensure complete colour diffusion. The absorbance value of control cells (no added compound) was set to 100% cell viability and absorbance versus cell density per well was determined to assess cell viability using Graph-Pad Prism software. AlamarBlue cell viability assay: Cells were seeded in 96-well plates (e.g., MCF-7, 5 × 10^3 cells/well) and (HT-29 cells, 1 × 10^3 cells/well) and (HL-60 cells, 1 × 10^4 cells/well) with a total volume per well of 200 µL. After 24 h, cells were treated in triplicate with serial dilutions of CA-4 or β-lactam analogues (0.001–100 μM), medium alone or vehicle (1% ethanol (v/v)). […]
On the technique in general: Alamar Blue is a resazurin reagent that responds to reducing activity.

For series [2], the system named is SW480 cells. In words: Cell viability assay, antiproliferative activity. The class given is cell-based, human. As to conditions: SW480, 10 μM. As for the experimental part:
[…]. The corresponding values for 10e in these cell lines were 161 nM (HL-60), 55 nM (SW480) and 135 nM (HT-29). […] […]. SW480 colon cells expressed low levels of the UDP-glucuronosyltransferase (UGT) protein compared to expression levels in HT-29 cells. […] […].
as §1, §2

Series [3] in a line: HPLC stability study in phosphate buffers. The class given is physicochemical. Particulars: phosphate buffer. As for the experimental part: HPLC stability studies at three different pH systems were performed on a representative compound 16a to determine the stability at acidic pH 4, pH 7.4 and basic pH 9 (acid pH found in the stomach, basic found in the intestine and pH 7.4 in the plasma).
A stability study for compound 16a was performed by analytical HPLC using a Symmetry® column (C18, […], 4.6 × 150 mm), a Waters 2487 Dual Wavelength Absorbance detector, a Waters 1525 binary HPLC pump and a Waters 717 plus Autosampler (Waters Corporation, Milford, MA, USA). Samples were detected at λ 254 nm using acetonitrile (70%)/water (30%) as the mobile phase over 15 min and a flow rate of 1 mL/min. A stock solution of the compound was prepared using 10 mg of compound 16a in 10 mL of mobile phase (1 mg/mL). A calibration curve was prepared using a solution of 0.5, 0.25, 0.125, 0.0625, 0.03125, 0.015625 and 0.0078 mg/mL. (i) Stability of 16a in phosphate buffers: Phosphate buffers at pH values 4, 7.4 and 9 were prepared according to the British Pharmacopoeia 2020. A total of 300 µL of stock solution (1 mg/mL ACN) for 16a was added to a vial containing 9.7 mL of buffer, mixed and pre-heated to 37°C. A total of 1 mL of the solution was added to the HPLC glass vial and 10 µL was injected, followed by hourly injections for a 24-h period. Samples were withdrawn and analysed at time intervals of t = 0 min, 5 min, 30 min, 60 min and hourly for 24 h. The analysis was performed in triplicate. (ii) Thermal stability: 16a (1 mg) was placed in a vial (for the solution, 1 mL of stock solution was used) at 60 °C for 4 h on a heating block. The sample was then cooled, diluted with ACN and analysed using HPLC. (iii) Photostability study: A solution of compound 16a (1 mL of the stock solution) was placed in a vial and exposed to UV light for 4 h. The sample was directly analysed using HPLC. […] Once neutralised, the samples were analysed using HPLC. […] Once neutralised, the samples were analysed using HPLC. […] A sample from the vial was taken every hour over 4 h and analysed using HPLC.

Series [4] deals with microtubule network of MCF-7 cells. In words: Immunofluorescence (confocal) of microtubule network. The class given is cell-based, human. As to conditions: MCF-7, 16 h; 10n 0.05, 0.1, 0.5 μM; CA-4 10 nM; paclitaxel 1 μM. The protocol:
Subsequently, the effect of the representative compound 10n on the organisation of microtubule cytoskeleton of MCF-7 cells was also determined by confocal microscopy using an anti-tubulin antibody (Figure 8). […] The MCF-7 cell nuclei (stained blue) were also clearly observed (Figure 8A). […] The treatment of MCF-7 breast cancer cells with CA-4 tubulin-targeting agents has been reported to result in the formation of multiple micronuclei and mitotic catastrophes.
Confocal microscopy was used to study the effects on MCF-7 cytoskeleton following treatment with compound 10n following the protocols previously reported. For each experiment, all images were collected on the same day using identical parameters. MCF-7 cells were seeded (1 × 10^5 cells/mL) on eight chamber glass slides. Cells were either untreated or treated with vehicle (1% ethanol (v/v)), CA-4 (10 nM), Paclitaxel (1 μM) and β-lactam compound 10n at 50 nM, 100 nM and 500 nM concentrations for 16 h. The cells were then gently washed in PBS and then fixed for 30 min with 100% ice-cold MeOH. Cells were washed three times in PBS for 10 min and then permeabilised in 0.5% Triton X-100. The cells were subsequently washed in PBS containing 0.1% Tween (PBST), and then blocked in bovine serum albumin (5%) diluted in PBST. Cells were then incubated with a mouse monoclonal anti-α-tubulin−FITC antibody (clone DM1A) (1:200) for 2 h at 20 °C. Following washes in PBST, cells were incubated with Alexa Fluor 488 dye (1:500) for 1 h at 20 °C. Following further washes in PBST, the cells were mounted in Ultra Cruz Mounting Media, which contained 4,6-diamino-2-phenolindol dihydrochloride (DAPI). The images were photographed using Leica SP8 confocal microscopy with the Leica application suite X software program. Experiments were performed on three independent occasions.
Figure 8 Compound 10n depolymerises the microtubule network of MCF-7 breast cancer cells. Cells were treated with (A) vehicle control ([…]), (B) CA-4 (10 nM), (C) paclitaxel (1 μM) and compound 10n, (D) (50 nM), (E) (100 nM) and (F) (500 nM) for 16 h. […]

With `COc1ccc(C2C(Br)C(=O)N2c2cc(OC)c(OC)c(OC)c2)cc1` (stereo not shown) [Compound 16a, 3-Bromo-4-(4-methoxyphenyl)-1-(3,4,5-trimethoxyphenyl)azetidin-2-one], in series [1] (Homo sapiens, MCF7, 72 h, MCF-7, 72 h, read-out: IC50 (MCF-7, 72 h)), the IC50 is 579 ± 30 nM. Also, the “fold decrease in activity vs corresponding 3-chloro compound 10e” value in series [1] (MCF-7 IC50 ratio) stood at 17 fold. Also, the “SW480 inhibition of cell viability” value in series [2] is recorded as 52%. In addition, the half-life at 0.03 mg/mL was 18 h in series [3] (buffer pH 4, 37°C); 22 h in series [3] (buffer pH 7.4, 37°C); 20 h in series [3] (buffer pH 9, 37°C).
Consider `CC(=O)O[C@H]1C(=O)[C@@]2(C)[C@H]([C@H](OC(=O)c3ccccc3)[C@]3(O)C[C@H](OC(=O)[C@H](O)[C@@H](NC(=O)c4ccccc4)c4ccccc4)C(C)=C1C3(C)C)[C@]1(OC(C)=O)CO[C@@H]1C[C@@H]2O` [paclitaxel], for which the “effect on microtubule network” value in series [4] is “hyper-polymerisation of tubulin”.

As a reminder, the IC50 is the midpoint of a concentration-inhibition curve. The term half-life denotes the time in which the quantity being followed falls by half. A lower half-life goes with rapid decline.
